Columns and labels:
Format in all cases: cell-based, human
[1] = test system: p65 component of NF-κB; experiment: Immunohistochemical localization of p65 in M1619 cells; settings: 24 hours, catalase 3,000 U/ml, apocynin 150 μg/ml, dicumarol 250 μM
Protocol: The effect of antioxidants on nuclear activation of NF-κB was studied by incubating near confluent (70%) cell cultures with antioxidant treatments for 1-48 hours. Nuclear protein was harvested, and EMSAs were performed using DNA consensus binding sequences, or nuclear translocation of the p65 component of NF-κB was studied by immunoperoxidase staining, as outlined below.
Immunohistochemical Localization of NF-κB. Cells grown on sterile coverslips and treated with catalase 3,000 U/ml, apocynin 150 μg/ml, or DPBS or DMSO vehicles for 24 h were fixed for 20 min on ice with 4% paraformaldehyde in DPBS with protease inhibitors, PI [Sigma protease inhibitor cocktail, 10 μl/ml, containing 4-(2-aminoethyl)benzensulfonyl fluoride (AEBSF), pepstatin A, trans-epoxysuccinyl-L-leucylamindo-(guanidino)butane (E-64), bestatin, leupeptin and aprotinin]. Cells were permeabilized by treating for 2 min with 0.1% NP-40 in DPBS/PI, washed once with cold DPBS and fixed as before for 10 min. Coverslips were incubated in 3% hydrogen peroxide for 30 min to suppress any remaining peroxidase, and washed three times in cold DPBS. The permeabilized and fixed cells were blocked for 2 hours with 2% BSA in DPBS on ice and incubated overnight at 4° C. with 1 μg/ml of anti-p65 antibody (Santa Cruz) diluted in 0.1% BSA/DPBS. Unbound anti-p65 was washed away with 2% BSA/DPBS and bound antibody was stained by incubation with biotinylated goat anti-rabbit immunoglobulin diluted 1:50 in 0.1% BSA/DPBS for 45 min on ice. Excess secondary antibody was washed away by 3 washes with 2% BSA/DPBS on ice. After washing, the cells were incubated with a streptavidin-biotin-peroxidase complex at room temperature for 1 hr, washed again, and incubated in 0.03% wt/vol 3-3′diaminobenzidine with 0.003% vol/vol hydrogen peroxide until a brown reaction product could be seen. Cells were then counterstained with eosin and mounted on glass slides before viewing under light microscopy. […]

[2] = test system: M1619 melanoma cells; experiment: MTT proliferation assay, M1619 melanoma
Protocol: Measurement of Proliferation in Cell Cultures. Proliferation of cultured cells was quantitated using a previously reported calorimetric method based upon metabolic reduction of the soluble yellow tetrazolium dye 3-[4,5-dimethylthiazol]-2yl-2,5-diphenyl tetrazolium bromide (MTT) to its insoluble purple formazan by the action of mitochondrial succinyl dehydrogenase. […] This assay empirically distinguishes between dead and living cells. For proliferation studies, cells were seeded into 24-well uncoated plastic plates (Costar) at 15,000-50,000 cells per well and cultured with respective media and mitogens. After 24-96 hours, medium was removed, cells were washed twice with 1 ml of sterile Dulbecco's modified phosphate buffered saline without Ca^2+ or Mg^2+ (DPBS), the medium was replaced with 1 ml/well fresh medium containing 100 μg/ml MTT, and plates were incubated an additional hour. MTT-containing medium was removed, 0.5 ml dimethylsulfoxide (DMSO) was added to each well, and the absorbance of the solubilized purple formazan dye was measured at 540 nm. A total of 4-6 wells was studied at each treatment condition. Preliminary studies were performed with 50-200 μg/ml MTT incubated for 15 min to 3 hours to determine the optimum concentration and incubation time at which the rate of conversion was linear and proportional to the number of cells present.
Cell Culture Treatments. The effect of antioxidant treatments on proliferation of malignant cell lines was studied in cultures stimulated with 10% FBS. Cell numbers were quantitated by the MTT assay 24-72 hours later. In some experiments, antioxidants were added immediately after cells were plated. In other experiments, cells were plated and allowed to grow for 24 hours before fresh media with antioxidants was added, and cell numbers were studied by the MTT assay 48 hours later.
A. M1619 melanoma cells stimulated with 10% fetal bovine serum (FBS) were plated at a density of 50,000 cells per well and antioxidants were added to wells at the indicated concentrations (mM or U/ml). After 48 hours, proliferation was quantitated by assessing the cell number-dependent reduction of the soluble yellow tetrazolium dye 3-[4,5-dimethylthiazol]-2yl-2,5-diphenyl tetrazolium bromide (MTT) to its insoluble formazan, measured as the absorbance at 540 nm (A540). The antioxidants tested included no antioxidant (control, i.e., FBS alone), 1000 U/ml SOD, 20 mM NAC, 500 U/ml, 1000 U/ml, and 3000 U/ml of catalase, and boiled […] catalase.
B. In a separate experiment, 2 μl/well of DMSO (served as control), 5 μM, 10 μM, and 25 μM Ebselen were tested on M1619 melanoma cells as described above, except that the cells were cultured for 72 hours before proliferation was measured.
C. 3000 U/ml Catalase, 2 μl/well DMSO, 25 μM Ebselen, and 50 μM Ebselen were tested as described above except that the compounds were added 24 hours after M1619 cells were plated. After the addition of antioxidants, the cells were incubated for an additional 48 hours and cell proliferation was quantitated. […]

[3] = test system: phosphorylated IκBα (IκBα-P); experiment: Immunoassay for phosphorylated IκBα; settings: M1619; catalase 3,000 U/ml for 24 hours
Protocol: The effect of antioxidants on expression of cell cyclins, cyclin-associated kinases, cell cycle inhibitors and IκBα was studied by incubating near confluent cell cultures with antioxidant treatments for 15 min-48 hours. Cells were lysed and protein levels were measured by immunoblot assay as described below. In other experiments, the ratio of phosphorylated-IκBα to total IκBα was determined by harvest of cytosolic protein 24 hours after treating cultures with 3,000 U/ml catalase.
The NF-κB inhibitor IκBα and phosphorylated IκBα were assayed with several modifications of the above procedure. Cells were lysed in boiling buffer to which 50 mM DTT had been added as a reducing agent. Immunoassay of IκBα. proceeded as above, but samples for measurement of phosphorylated IκBα were blocked 2 hours at room temperature and incubated overnight at 4° C. with primary phospho-specific antibodies diluted 1:1000 in PBS with 0.1% Tween and 5% BSA.
M1619 cells either treated with catalase with 3,000 U/ml for 24 hours or untreated were used in immunoassays for phosphorylated IκBα (IκBα-P) using phospho-specific antibody as described above.
Mean ratios of the densitometrically determined sum intensities of IκBα-P staining in the immunoassay experiments are shown in FIG. 5B.

## Catalase
[1]
  anti-p65 staining in nuclei (nuclear translocation of NF-κB): little staining in nuclei
[2]; 10% FBS, agents added at plating, 48 hours (ebselen 72 hours)
  Proliferation of M1619 melanoma cells (MTT, A540): reduced proliferation
[2]; catalase 3000 U/ml, Ebselen 25 and 50 μM, further 48 hours
  Proliferation of M1619 melanoma cells, agents added 24 hours after plating: antiproliferative
[3]
  amount of IκBα that is phosphorylated: decreases
